Assay results published in patent US6720331B2, “1-substituted 1,2,3,4-tetrahydro-β-carboline and 3,4-dihydro-β-carboline and analogs as antitumor agents” (National Sun Yat-sen University, priority 2001, dated 2004).

Key:
[1] = system: HT-29 (human colon adenocarcinoma); experiment: Growth inhibition of tumor cell line HT-29 (Table 1); assay type: cell-based; conditions: 6 day drug exposure; columns A/B = scaffold type
P-388 (murine leukemia) = experiment: Growth inhibition of tumor cell line P-388 (Table 1); assay type: cell-based; conditions: 3 day drug exposure; columns A/B = scaffold type
[2] = system: HT-29 (colon adenocarcinoma); experiment: alamarBlue anti-proliferation assay, Colon HT-29; assay type: cell-based, human; conditions: for Percent Growth (Mean ± SEM, n = 2): 72 hour
Protocol: (§1) The growth effects of compound 29 was tested on 8 different human tumour cell lines. Changes in cell proliferation based on the ability of viable cells to cause alamar Blue to change from its oxidized (non-fluorescent, blue) to a reduced (fluorescent, red) form were evaluated. With the results obtained from the alamarBlue reaction, cell proliferation was quantified and metabolic activity of viable cells examined. Test compound, (29), was tested for its effect on the proliferation of 8 different human tumor cell lines at five final assay concentrations from 100 to 0.01 μM through serial 10-fold dilutions, respectively.
(§2) Compound 29 was dissolved in 100% ethanol and then diluted with Phosphate Buffer Saline (PBS, pH=7.4) to obtain initial working solutions of 10000, 1000, 100, 10 and 1 μM in 40% ethanol. In testing, 100-fold dilution was made in culture media to get final assay concentrations of 100, 10, 1, 0.1 and 0.01 μM in 0.4% of ethanol.
(§3) Aliquots of 100 μl of cell suspension (about 2.5-5×10^3/well) were placed in 96well microtiter plates in an atmosphere of 5% CO2 at 37° C. After 24 hours, 100 μl of growth medium, 2 μL of test solution or vehicle (40% DMSO), was added respectively per well in duplicate for an additional 72 hour incubation. Thus, the final concentration of DMSO was 0.4%. The test compound was evaluated at concentrations of 100, 10, 1, 0.1 and 0.01 μM. At the end of the incubation, 20 μL of alamarBlue 75% reagent was added to each well for another 6-hour incubation before detection of cell viability by fluorescent intensity. Fluorescent intensity was measured using a Spectrafluor Plus plate reader with excitation at 530 nm and emission at 590 nm.
(§4) PG(%)=100×(Mean Ftest−Mean Ftime0)/(Mean Fctrl−Mean Ftime0).
(§5) PG(%)=100×(Mean Ftest−Mean Ftime0)/(Mean Ftime0−Mean Fblank)
(§6) A decrease of 50% or more (≧50%) in fluorescent intensity relative to vehicle-treated control indicated significant cytostatic or cytotoxic activity, and a semi-quantitative IC50, TGI and LC50 were then determined by nonlinear regression using GraphPad Prism (GraphPad Software, U.S.A.).
(§7) IC50 (50% Inhibition Concentration): Test Compound concentration at which the increase from time0 in the number or mass of treated cells was only 50% as much as the corresponding increase in the vehicle-control at the end of experiment.
(§8) TGI (Total Growth Inhibition): Test compound concentration at which the number or mass of treated cells at the end of the experiment was equal to that at time0.
(§9) LC50 (50% Lethal Concentration): Test compound concentration at which the number of mass of treated cells at the end of the experiment was half that at time0.

[3] = system: T47D (breast ductal carcinoma); experiment: alamarBlue anti-proliferation assay, Breast T47D; assay type: cell-based, human; conditions: 72 hour
Protocol: as §1, §2, §3, §4, §5, §6, §7, §8, §9

[4] = system: HL-60 (promyelocytic leukemia); experiment: alamarBlue anti-proliferation assay, Leukemia HL-60; assay type: cell-based, human; conditions: for Percent Growth (Mean ± SEM, n = 2): 72 hour
Protocol: as §1, §2, §3, §4, §5, §6, §7, §8, §9

[5] = system: MCF-7 (breast adenocarcinoma); experiment: alamarBlue anti-proliferation assay, Breast MCF-7; assay type: cell-based, human; conditions: for Percent Growth (Mean ± SEM, n = 2): 72 hour
Protocol: as §1, §2, §3, §4, §5, §6, §7, §8, §9

[6] = system: HepG2 (hepatoblastoma, liver); experiment: alamarBlue anti-proliferation assay, Liver HepG2; assay type: cell-based, human; conditions: for Percent Growth (Mean ± SEM, n = 2): 72 hour
Protocol: as §1, §2, §3, §4, §5, §6, §7, §8, §9

[7] = system: U-937 (histiocytic lymphoma); experiment: alamarBlue anti-proliferation assay, Lymphoma U-937; assay type: cell-based, human; conditions: for Percent Growth (Mean ± SEM, n = 2): 72 hour
Protocol: as §1, §2, §3, §4, §5, §6, §7, §8, §9

[8] = system: A-549 (human lung adenocarcinoma); experiment: Growth inhibition of tumor cell line A-549 (Table 1); assay type: cell-based; conditions: 6 day drug exposure; columns A/B = scaffold type
[9] = system: PC-3 (prostate adenocarcinoma); experiment: alamarBlue anti-proliferation assay, Prostate PC-3; assay type: cell-based, human; conditions: for Percent Growth (Mean ± SEM, n = 2): 72 hour
Protocol: as §1, §2, §3, §4, §5, §6, §7, §8, §9

PC-6 (lung carcinoma) = experiment: alamarBlue anti-proliferation assay, Lung PC-6; assay type: cell-based, human; conditions: for Percent Growth (Mean ± SEM, n = 2): 72 hour
Protocol: as §1, §2, §3, §4, §5, §6, §7, §8, §9

[10] = system: KB-16 (human nasopharyngeal carcinoma); experiment: Growth inhibition of tumor cell line KB-16 (Table 1); assay type: cell-based; conditions: 3 day drug exposure; columns A/B = scaffold type

CCn1c2ccccc2c2cc(C3=NCCc4c3[nH]c3ccccc43)ccc21 [Compound 29, 1-(9′-Ethyl-3′-carbazole)-3,4-dihydro-β-carboline]
IC50, concentration inhibiting 50% of the growth of HT-29 [1]: <1 ng/mL
IC50, concentration inhibiting 50% of the growth of P-388 (P-388 (murine leukemia)): < 1 ng/mL
Percent Growth (Mean ± SEM, n = 2) ([2]; HT-29, 0.01 μM): 97 ± 4%
Percent Growth (Mean ± SEM, n = 2) ([2]; HT-29, 0.1 μM): 101 ± 8%
Percent Growth (Mean ± SEM, n = 2) ([2]; HT-29, 1 μM): 85 ± 3%
Percent Growth (Mean ± SEM, n = 2) ([2]; HT-29, 10 μM): −30 ± 15%
Percent Growth (Mean ± SEM, n = 2) ([2]; HT-29, 100 μM): −94 ± 3%
Estimated TGI (Total Growth Inhibition) ([2]; HT-29, 72 hour, semi-quantitative): 5.2 µM
IC50 ([2]; HT-29, 72 hour, semi-quantitative, read-out: Estimated IC50 (50% Inhibition Concentration)): 2.3 µM
LC50 (50% lethal concentration) ([2]; HT-29, 72 hour, semi-quantitative, read-out: Estimated cIC50 (footnote c: LC50, 50% Lethal Concentration)): 11.7 µM
Percent Growth (Mean ± SEM, n = 2) ([3]; 0.01 μM): 92 ± 2%
Percent Growth (Mean ± SEM, n = 2) ([3]; 0.1 μM): 88 ± 6%
Percent Growth (Mean ± SEM, n = 2) ([3]; 1 μM): 89 ± 3%
Percent Growth (Mean ± SEM, n = 2) ([3]; 10 μM): 25 ± 3%
Percent Growth (Mean ± SEM, n = 2) ([3]; 100 μM): −100 ± 4%
Estimated TGI (Total Growth Inhibition) ([3]; semi-quantitative): 10.8 µM
IC50 ([3]; semi-quantitative, read-out: Estimated IC50 (50% Inhibition Concentration)): 6 µM
LC50 (50% lethal concentration) ([3]; semi-quantitative, read-out: Estimated cIC50 (footnote c: LC50, 50% Lethal Concentration)): 19.2 µM
Percent Growth (Mean ± SEM, n = 2) ([4]; HL-60, 0.01 μM): 99 ± 2%
Percent Growth (Mean ± SEM, n = 2) ([4]; HL-60, 0.1 μM): 90 ± 6%
Percent Growth (Mean ± SEM, n = 2) ([4]; HL-60, 1 μM): 73 ± 5%
Percent Growth (Mean ± SEM, n = 2) ([4]; HL-60, 10 μM): 9 ± 3%
Percent Growth (Mean ± SEM, n = 2) ([4]; HL-60, 100 μM): −100 ± 2%
Estimated TGI (Total Growth Inhibition) ([4]; HL-60, 72 hour, semi-quantitative): 8.3 µM
IC50 ([4]; HL-60, 72 hour, semi-quantitative, read-out: Estimated IC50 (50% Inhibition Concentration)): 3.2 µM
LC50 (50% lethal concentration) ([4]; HL-60, 72 hour, semi-quantitative, read-out: Estimated cIC50 (footnote c: LC50, 50% Lethal Concentration)): 22 µM
Percent Growth (Mean ± SEM, n = 2) ([5]; MCF-7, 0.01 μM): 97 ± 1%
Percent Growth (Mean ± SEM, n = 2) ([5]; MCF-7, 0.1 μM): 94 ± 7%
Percent Growth (Mean ± SEM, n = 2) ([5]; MCF-7, 1 μM): 85 ± 8%
Percent Growth (Mean ± SEM, n = 2) ([5]; MCF-7, 10 μM): −48 ± 11%
Percent Growth (Mean ± SEM, n = 2) ([5]; MCF-7, 100 μM): −100 ± 0%
Estimated TGI (Total Growth Inhibition) ([5]; MCF-7, 72 hour, semi-quantitative): 4.2 µM
IC50 ([5]; MCF-7, 72 hour, semi-quantitative, read-out: Estimated IC50 (50% Inhibition Concentration)): 2 µM
LC50 (50% lethal concentration) ([5]; MCF-7, 72 hour, semi-quantitative, read-out: Estimated cIC50 (footnote c: LC50, 50% Lethal Concentration)): 8.3 µM
Percent Growth (Mean ± SEM, n = 2) ([6]; HepG2, 0.01 μM): 106 ± 2%
Percent Growth (Mean ± SEM, n = 2) ([6]; HepG2, 0.1 μM): 96 ± 11%
Percent Growth (Mean ± SEM, n = 2) ([6]; HepG2, 1 μM): 81 ± 4%
Percent Growth (Mean ± SEM, n = 2) ([6]; HepG2, 10 μM): −27 ± 7%
Percent Growth (Mean ± SEM, n = 2) ([6]; HepG2, 100 μM): −100 ± 3%
Estimated TGI (Total Growth Inhibition) ([6]; HepG2, 72 hour, semi-quantitative): 5.2 µM
IC50 ([6]; HepG2, 72 hour, semi-quantitative, read-out: Estimated IC50 (50% Inhibition Concentration)): 2.2 µM
LC50 (50% lethal concentration) ([6]; HepG2, 72 hour, semi-quantitative, read-out: Estimated cIC50 (footnote c: LC50, 50% Lethal Concentration)): 12.5 µM
Percent Growth (Mean ± SEM, n = 2) ([7]; U-937, 0.01 μM): 103 ± 3%
Percent Growth (Mean ± SEM, n = 2) ([7]; U-937, 0.1 μM): 97 ± 6%
Percent Growth (Mean ± SEM, n = 2) ([7]; U-937, 1 μM): 90 ± 2%
Percent Growth (Mean ± SEM, n = 2) ([7]; U-937, 10 μM): −3 ± 4%
Percent Growth (Mean ± SEM, n = 2) ([7]; U-937, 100 μM): −93 ± 0%
Estimated TGI (Total Growth Inhibition) ([7]; U-937, 72 hour, semi-quantitative): 7.9 µM
IC50 ([7]; U-937, 72 hour, semi-quantitative, read-out: Estimated IC50 (50% Inhibition Concentration)): 3.5 µM
LC50 (50% lethal concentration) ([7]; U-937, 72 hour, semi-quantitative, read-out: Estimated cIC50 (footnote c: LC50, 50% Lethal Concentration)): 18.3 µM
IC50, concentration inhibiting 50% of the growth of A-549 [8]: <1 ng/mL
Percent Growth (Mean ± SEM, n = 2) ([9]; PC-3, 0.01 μM): 100 ± 1%
Percent Growth (Mean ± SEM, n = 2) ([9]; PC-3, 0.1 μM): 94 ± 3%
Percent Growth (Mean ± SEM, n = 2) ([9]; PC-3, 1 μM): 82 ± 4%
Percent Growth (Mean ± SEM, n = 2) ([9]; PC-3, 10 μM): −17 ± 9%
Percent Growth (Mean ± SEM, n = 2) ([9]; PC-3, 100 μM): −93 ± 1%
Estimated TGI (Total Growth Inhibition) ([9]; PC-3, 72 hour, semi-quantitative): 6.2 µM
IC50 ([9]; PC-3, 72 hour, semi-quantitative, read-out: Estimated IC50 (50% Inhibition Concentration)): 2.5 µM
LC50 (50% lethal concentration) ([9]; PC-3, 72 hour, semi-quantitative, read-out: Estimated cIC50 (footnote c: LC50, 50% Lethal Concentration)): 15 µM
Percent Growth (Mean ± SEM, n = 2) (PC-6 (lung carcinoma); PC-6, 0.01 μM): 101 ± 1%
Percent Growth (Mean ± SEM, n = 2) (PC-6 (lung carcinoma); PC-6, 0.1 μM): 97 ± 5%
Percent Growth (Mean ± SEM, n = 2) (PC-6 (lung carcinoma); PC-6, 1 μM): 95 ± 5%
Percent Growth (Mean ± SEM, n = 2) (PC-6 (lung carcinoma); PC-6, 10 μM): 24 ± 2%
Percent Growth (Mean ± SEM, n = 2) (PC-6 (lung carcinoma); PC-6, 100 μM): −79 ± 11%
Estimated TGI (Total Growth Inhibition) (PC-6 (lung carcinoma); PC-6, 72 hour, semi-quantitative): 12.5 µM
IC50 (PC-6 (lung carcinoma); PC-6, 72 hour, semi-quantitative, read-out: Estimated IC50 (50% Inhibition Concentration)): 5 µM
LC50 (50% lethal concentration) (PC-6 (lung carcinoma); PC-6, 72 hour, semi-quantitative, read-out: Estimated cIC50 (footnote c: LC50, 50% Lethal Concentration)): 32.5 µM
IC50, concentration inhibiting 50% of the growth of KB-16 [10]: <1 ng/mL
